# Columns and labels:
# [1] = molecular target: T1, human sodium channels Nav 1.7 (Homo sapiens, UniProt Q15858); experiment: Automated whole-cell voltage-clamp (ScreenPatch 384P) sodium current block, Nav 1.7; type: cell-based; conditions: CHO cells stably expressing human Nav 1.7; inactivation step -40 mV for 8 seconds, test step 0 mV (TP1A); exposure at least five minutes; room temperature; mean if two or more assays; read-out: Nav1.7 IC50
# T1 construct: expressed in transfected cells
# Experimental: (§1) Biological assays were performed on Chinese hamster ovary (CHO) cells that express human sodium channels Nav 1.8 or Nav 1.7 in a stable manner.
# (§2) The experimental protocol voltage-clamp using the whole cell configuration was established on the automated ScreenPatch® 384P platform (SP384PE, Nanion Technologies, Livingston, NJ) and the results were recorded with a Nanion 384-well Patch Clamp chip (NPC) (Nanion Technologies, Livingston, NJ).
# (§3) Formula I compounds were diluted in eight concentrations in the extracellular solution composed of saline saline solution, buffered with HEPES (mM): NaCl, 137; KCl, 4; CaCl2, 3,8; MgCl2, 1; HEPES, 10; Glucose, 10; pH 7.4. The […], 50; CsF, 90; MgCl2, 5; EGTA, 5; HEPES, 10; pH 7.2. The duration of exposure of each compound with cells expressing Nav 1.7 or Nav 1.8 was at least five minutes and the assays were performed at room temperature.
# (§4) The measurements of the sodium currents of Nav 1.8 and Nav 1.7 were obtained using the voltage protocol described below.
# (§5) A holding voltage of -100 mV was established followed by an inactivation voltage step at -40 mV for 8 seconds, followed by a step of -100 mV for 20 ms, followed by a 20 ms step for 10 mV for Nav 1.8 or 0 mV for Nav 1.7 (TP1A) before returning to the holding voltage of -100 mV.
# (§6) The protocol was repeated at a frequency of 0.05 Hz and the amplitude of the current was quantified throughout the recording of the TP1A phase. The variation in the amplitude of the peak current was evaluated according to the formula described below, after exposing the cells expressing the channels to each concentration of the different compounds: % Block = (1−(ITP1A,molecule/ITP1A,basal)×100%, [formula] wherein ITP1A,basal and ITP1A,molecule represent the peaks of sodium current input into TP1A before exposure to the compound and in the presence of the compound, respectively.
# (§7) Data were obtained by nonlinear regression (nonlinear least squares) with XLfit for Excel (Microsoft, Redmond, WA).
# (§8) The compounds were tested in at least one assay to obtain the value of CI50. For compounds that were tested in two or more assays, the results are described as the mean of the CI50 values.
# [2] = molecular target: T2, human sodium channels Nav 1.8 (Homo sapiens, UniProt Q9Y5Y9); experiment: Automated whole-cell voltage-clamp (ScreenPatch 384P) sodium current block, Nav 1.8; type: cell-based; conditions: CHO cells stably expressing human Nav 1.8; inactivation step -40 mV for 8 seconds, test step 10 mV (TP1A); exposure at least five minutes; room temperature; mean if two or more assays; read-out: Nav1.8 IC50
# T2 construct: expressed in transfected cells
# Experimental: as §1, §2, §3, §4, §5, §6, §7, §8
# T1 sequence (Q15858 whole entry): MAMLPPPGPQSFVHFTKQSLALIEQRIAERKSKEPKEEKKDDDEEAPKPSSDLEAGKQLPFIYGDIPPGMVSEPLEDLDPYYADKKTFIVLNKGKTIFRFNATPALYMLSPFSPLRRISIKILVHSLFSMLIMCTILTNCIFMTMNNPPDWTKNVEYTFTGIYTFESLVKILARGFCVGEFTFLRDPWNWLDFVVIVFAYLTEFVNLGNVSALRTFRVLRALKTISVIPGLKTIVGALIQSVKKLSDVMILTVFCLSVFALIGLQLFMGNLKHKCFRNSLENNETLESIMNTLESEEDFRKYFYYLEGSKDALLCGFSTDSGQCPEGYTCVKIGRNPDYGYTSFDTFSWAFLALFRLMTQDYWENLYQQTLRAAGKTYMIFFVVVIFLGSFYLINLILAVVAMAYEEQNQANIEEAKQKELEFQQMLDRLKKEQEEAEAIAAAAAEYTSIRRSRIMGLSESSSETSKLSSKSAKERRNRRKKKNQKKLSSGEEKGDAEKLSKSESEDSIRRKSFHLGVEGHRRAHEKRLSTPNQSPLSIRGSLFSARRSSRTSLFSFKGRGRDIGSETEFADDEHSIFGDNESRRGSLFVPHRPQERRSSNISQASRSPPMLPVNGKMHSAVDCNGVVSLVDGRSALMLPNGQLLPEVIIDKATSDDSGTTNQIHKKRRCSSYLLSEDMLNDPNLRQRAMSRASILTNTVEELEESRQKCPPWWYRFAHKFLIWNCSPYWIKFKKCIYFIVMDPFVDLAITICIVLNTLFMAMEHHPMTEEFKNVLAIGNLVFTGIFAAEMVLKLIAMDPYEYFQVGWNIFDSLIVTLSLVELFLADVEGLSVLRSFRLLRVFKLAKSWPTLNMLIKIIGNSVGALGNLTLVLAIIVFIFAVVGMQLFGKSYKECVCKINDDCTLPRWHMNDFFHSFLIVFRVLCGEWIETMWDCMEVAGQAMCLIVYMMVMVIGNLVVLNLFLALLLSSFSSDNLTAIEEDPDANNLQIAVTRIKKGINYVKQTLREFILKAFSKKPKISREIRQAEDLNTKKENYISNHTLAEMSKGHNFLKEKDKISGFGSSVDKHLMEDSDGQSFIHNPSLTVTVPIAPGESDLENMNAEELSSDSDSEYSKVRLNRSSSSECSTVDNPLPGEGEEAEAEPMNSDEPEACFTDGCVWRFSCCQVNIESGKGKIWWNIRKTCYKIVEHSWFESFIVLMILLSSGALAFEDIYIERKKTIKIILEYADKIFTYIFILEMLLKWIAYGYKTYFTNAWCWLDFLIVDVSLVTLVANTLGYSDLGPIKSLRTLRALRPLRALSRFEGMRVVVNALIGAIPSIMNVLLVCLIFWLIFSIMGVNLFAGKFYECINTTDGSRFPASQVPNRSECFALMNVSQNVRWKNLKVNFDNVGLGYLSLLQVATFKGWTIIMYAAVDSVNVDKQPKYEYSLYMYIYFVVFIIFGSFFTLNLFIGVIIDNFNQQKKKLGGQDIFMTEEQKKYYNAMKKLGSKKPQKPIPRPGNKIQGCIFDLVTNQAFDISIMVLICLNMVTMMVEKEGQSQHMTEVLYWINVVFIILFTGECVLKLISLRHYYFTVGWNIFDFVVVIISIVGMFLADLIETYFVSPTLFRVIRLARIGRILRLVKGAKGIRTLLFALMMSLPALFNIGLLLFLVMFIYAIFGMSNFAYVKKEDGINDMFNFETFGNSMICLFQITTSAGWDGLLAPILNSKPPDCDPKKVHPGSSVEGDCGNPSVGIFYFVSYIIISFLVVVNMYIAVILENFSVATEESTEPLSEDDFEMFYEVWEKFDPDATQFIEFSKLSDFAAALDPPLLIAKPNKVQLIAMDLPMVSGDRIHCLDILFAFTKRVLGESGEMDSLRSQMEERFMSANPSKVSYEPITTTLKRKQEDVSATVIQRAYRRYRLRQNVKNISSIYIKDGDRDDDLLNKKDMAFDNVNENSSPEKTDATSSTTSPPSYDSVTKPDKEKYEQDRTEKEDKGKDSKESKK
# T2 sequence (Q9Y5Y9 whole entry): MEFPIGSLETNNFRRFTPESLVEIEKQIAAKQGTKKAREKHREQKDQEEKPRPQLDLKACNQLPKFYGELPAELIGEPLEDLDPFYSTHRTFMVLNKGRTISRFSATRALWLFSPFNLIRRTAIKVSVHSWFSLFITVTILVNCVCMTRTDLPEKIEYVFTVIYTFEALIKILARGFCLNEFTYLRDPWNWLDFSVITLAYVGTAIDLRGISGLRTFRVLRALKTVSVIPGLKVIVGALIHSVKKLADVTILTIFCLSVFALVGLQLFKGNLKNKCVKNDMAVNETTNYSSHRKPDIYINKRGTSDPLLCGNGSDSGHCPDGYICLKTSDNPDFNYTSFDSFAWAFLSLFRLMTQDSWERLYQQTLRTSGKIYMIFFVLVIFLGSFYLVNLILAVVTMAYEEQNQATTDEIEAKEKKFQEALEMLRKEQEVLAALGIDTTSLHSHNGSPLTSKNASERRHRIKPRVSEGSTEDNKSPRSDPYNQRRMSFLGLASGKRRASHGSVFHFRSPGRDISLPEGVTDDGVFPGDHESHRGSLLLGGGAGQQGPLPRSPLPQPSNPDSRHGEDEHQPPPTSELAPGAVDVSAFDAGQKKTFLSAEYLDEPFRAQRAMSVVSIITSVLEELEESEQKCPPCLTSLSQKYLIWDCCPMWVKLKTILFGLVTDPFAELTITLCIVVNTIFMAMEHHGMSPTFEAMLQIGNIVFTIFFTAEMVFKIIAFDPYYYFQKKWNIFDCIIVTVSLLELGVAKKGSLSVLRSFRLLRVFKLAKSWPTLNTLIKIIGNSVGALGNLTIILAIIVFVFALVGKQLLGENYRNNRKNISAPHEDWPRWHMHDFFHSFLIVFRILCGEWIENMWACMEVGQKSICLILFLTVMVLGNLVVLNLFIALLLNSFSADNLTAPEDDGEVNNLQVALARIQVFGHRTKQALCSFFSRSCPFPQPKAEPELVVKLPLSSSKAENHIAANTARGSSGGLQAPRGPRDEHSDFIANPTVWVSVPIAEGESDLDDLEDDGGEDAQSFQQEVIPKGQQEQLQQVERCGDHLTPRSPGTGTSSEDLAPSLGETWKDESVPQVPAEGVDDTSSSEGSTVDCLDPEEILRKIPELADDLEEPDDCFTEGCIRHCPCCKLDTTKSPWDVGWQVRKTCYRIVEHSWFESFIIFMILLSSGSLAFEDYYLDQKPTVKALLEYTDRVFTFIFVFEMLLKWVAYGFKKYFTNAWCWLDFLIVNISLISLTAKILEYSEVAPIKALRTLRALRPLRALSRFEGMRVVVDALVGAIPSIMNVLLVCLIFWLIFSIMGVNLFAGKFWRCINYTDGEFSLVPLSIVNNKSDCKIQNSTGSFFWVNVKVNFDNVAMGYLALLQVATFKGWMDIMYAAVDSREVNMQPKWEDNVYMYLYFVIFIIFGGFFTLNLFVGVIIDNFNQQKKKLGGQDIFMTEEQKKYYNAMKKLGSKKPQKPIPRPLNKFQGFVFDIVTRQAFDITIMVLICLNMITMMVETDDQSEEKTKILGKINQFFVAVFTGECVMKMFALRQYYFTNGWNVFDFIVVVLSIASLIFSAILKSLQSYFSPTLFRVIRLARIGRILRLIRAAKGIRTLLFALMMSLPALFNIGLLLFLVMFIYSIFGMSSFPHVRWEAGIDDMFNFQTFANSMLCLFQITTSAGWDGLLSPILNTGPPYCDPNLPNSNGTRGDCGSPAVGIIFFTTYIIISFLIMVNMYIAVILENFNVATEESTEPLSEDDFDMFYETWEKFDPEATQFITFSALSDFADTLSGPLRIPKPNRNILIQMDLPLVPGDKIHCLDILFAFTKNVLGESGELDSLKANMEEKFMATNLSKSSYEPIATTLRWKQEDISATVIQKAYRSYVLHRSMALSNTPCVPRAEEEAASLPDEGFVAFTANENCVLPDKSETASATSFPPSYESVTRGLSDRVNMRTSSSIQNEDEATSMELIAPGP
Structure (SMILES),IC50 [1] [µM],IC50 [2] [µM]
"[2H]C([2H])([2H])Oc1ccc(F)c(CONC(=O)c2cncc(-c3ccc(OCC)nc3)n2)c1 [Compound 55, 6-(6-ethoxypyridine-3-yl)-N-((2-fluoro-5-(methoxy-d3)benzyl)oxy)pyrazine-2-carboxamide]",0.5 to 1,< 0.5
CCOc1ccc(-c2cncc(C(=O)NOCc3[nH]ccc3C#N)n2)cn1 [Compound 68],> 1,> 1
CCOc1ccc(-c2cncc(C(=O)NOCc3cc(OC)ccc3F)c2)cn1 [Compound 108],> 1,> 1
CCOc1ccc(-c2cncc(C(=O)NOCc3cc(OC)ccc3F)n2)cc1O [Compound 89],> 1,< 0.5
CCOc1ccc(-c2cncc(C(=O)NOCc3cncn3C)n2)cn1 [Compound 56],0.5 to 1,< 0.5
COc1cnc(F)c(CONC(=O)c2cncc(-c3ccc(OC(F)F)nc3)n2)c1 [Compound 78],> 1,> 1
"[2H]C([2H])([2H])C([2H])([2H])Oc1ccc(-c2cncc(C(=O)NOCc3cc(OC)ccc3F)n2)cn1 [Compound 48, 6-(6-(ethoxy-d5)pyridine-3-yl)-N-((2-fluoro-5-methoxybenzyl)oxy)pyrazine-2-carboxamide]",> 1,> 1
"CCOc1ccc(-c2cncc(C(=O)NOCc3cc(OC)ccc3C3CC3)n2)cc1 [Compound 15, N-((2-cyclopropyl-5-methoxybenzyl)oxy)-6-(4-ethoxyphenyl)pyrazine-2-carboxamide]",< 0.5,< 0.5
CN(C)c1ccc(F)c(CONC(=O)c2cncc(-c3ccc(OC(F)F)nc3)n2)c1 [Compound 81],> 1,> 1
CCOc1ccc(-c2nccc(C(=O)NOCc3cc(OC)ccc3F)n2)cn1 [Compound 109],> 1,< 0.5
"COc1cncc(CONC(=O)c2cncc(-c3ccc(OC(F)F)cc3)n2)c1 [Compound 28, 6-(4-(difluoromethoxy)phenyl)-N-((5-methoxypyridine-3-yl)methoxy)pyrazine-2-carboxamide]",> 1,< 0.5
COc1cncc(CONC(=O)c2cncc(-c3ccc(OC(F)F)nc3)n2)c1 [Compound 82],> 1,> 1
CCOc1ccc(-c2cc(O)nc(C(=O)NOCc3cc(OC)ccc3F)n2)cc1 [Compound 113],> 1,< 0.5
COc1ccc(F)c(CONC(=O)c2cnc(F)c(-c3ccc(OC(F)F)nc3)n2)c1 [Compound 124],> 1,> 1
CCOc1ccc(-c2cnc(N)c(C(=O)NOCc3cc(OC)ccc3F)n2)cn1 [Compound 103],> 1,0.5 to 1
"CCOc1ccc(-c2cncc(C(=O)NOCc3cc(N(C)C)ccc3F)n2)cn1 [Compound 40, N-((5-(dimethylamino)-2-fluorobenzyl)oxy)-6-(6-ethoxypyridine-3-yl)pyrazine-2-carboxamide]",> 1,< 0.5
"CCOc1ccc(-c2cncc(C(=O)NOCc3cc(O)ccc3F)n2)cc1 [Compound 14, 6-(4-ethoxyphenyl)-N-((2-fluoro-5-hydroxybenzyl)oxy)pyrazine-2-carboxamide]",> 1,< 0.5
CCOc1ccc(-c2nc(C(=O)NOCc3cc(OC)cc(OC)c3)cnc2O)cc1 [Compound 96],< 0.5,< 0.5
"CCOc1ccc(-c2cncc(C(=O)NOCc3cc(OC)ccc3F)n2)cc1 [Compound 9, 6-(4-ethoxyphenyl)-N-((2-fluoro-5-methoxybenzyl)oxy)pyrazine-2-carboxamide]",> 1,< 0.5

Structure (SMILES),IC50 [1] [µM],IC50 [2] [µM]
"CCOc1ccc(-c2cncc(C(=O)NOCc3c[nH]nc3C)n2)cn1 [Compound 69, 6-(6-ethoxypyridine-3-yl)-N-((3-methyl-1H-pyrazole-4-yl)methoxy)pyrazine-2-carboxamide]",> 1,> 1
"COc1ccc(F)c(CONC(=O)c2cncc(-c3ccc(OCCC4CN(C)C4)cc3)n2)c1 [Compound 27, N-((2-fluoro-5-methoxybenzyl)oxy)-6-(4-(2-(1-methylazetidine-3-yl)ethoxy)phenyl)pyrazine-2-carboxamide]",> 1,< 0.5
CCOc1ccc(-c2nc(C(=O)NOCc3cc(OC)ccc3F)cnc2N)cn1 [Compound 102],> 1,< 0.5
CCOc1ccc(-c2cncc(C(=O)NOCc3cc(OC)ccc3F)n2)c(O)c1 [Compound 85],> 1,> 1
"CCOc1ccc(-c2cncc(C(=O)NOCc3cc(OC)cc(OC)c3)n2)cc1 [Compound 20, N-((3,5-dimethoxybenzyl)oxy)-6-(4-ethoxyphenyl)pyrazine-2-carboxamide]",> 1,> 1
CCOc1ccc(-c2cnc(O)c(C(=O)NOCc3cc(OC)ccc3F)n2)cn1 [Compound 101],> 1,> 1
"CCOc1ccc(-c2cncc(C(=O)NOCc3cc(OC)cnc3F)n2)cn1 [Compound 38, 6-(6-ethoxypyridine-3-yl)-N-((2-fluoro-5-methoxypyridine-3-yl)methoxy)pyrazine-2-carboxamide]",> 1,< 0.5
COc1ccc(F)c(CONC(=O)c2cncc(-c3ccc(OC(F)F)nc3)n2)c1 [Compound 77],> 1,> 1
"[2H]C([2H])([2H])Oc1ccc(F)c(CONC(=O)c2cncc(-c3ccc(OC([2H])([2H])C([2H])([2H])[2H])nc3)n2)c1 [Compound 53, 6-(6-(ethoxy-d5)pyridine-3-yl)-N-((2-fluoro-5-(methoxy-d3)benzyl)oxy)pyrazine-2-carboxamide]",> 1,> 1
CCOc1ccc(-c2cncc(C(=O)NOCc3cncn3C(C)C)n2)cn1 [Compound 63],> 1,> 1
O=C(NOCc1cccnc1)c1cncc(-c2ccc(OC(F)(F)F)nc2)n1 [Compound 74],> 1,< 0.5
COc1ccc(F)c(CONC(=O)c2cncc(-c3ccc(OC(F)F)cc3OC)n2)c1 [Compound 88],> 1,> 1
COc1cnc(F)c(CONC(=O)c2nc(-c3ccc(OC(F)F)nc3)cnc2N)c1 [Compound 120],> 1,> 1
COc1ccc(F)c(CONC(=O)c2cccc(-c3ccc(OC(F)F)nc3)n2)c1 [Compound 115],> 1,> 1
"CCOc1ccc(-c2cncc(C(=O)NOCc3cncc(OC)c3)n2)cc1 [Compound 8, 6-(4-ethoxyphenyl)-N-((5-methoxypyridine-3-yl)methoxy)pyrazine-2-carboxamide]",> 1,> 1
CCOc1ccc(-c2cncc(C(=O)NOCc3cc(OC)ccc3F)n2)c(C)c1 [Compound 86],> 1,< 0.5
"CCOc1ccc(-c2cncc(C(=O)NOCc3cc(C(C)N)ccc3F)n2)cc1 (stereo not shown) [Compound 17, N-((5-(1-aminoethyl)-2-fluorobenzyl)oxy)-6-(4-ethoxyphenyl)pyrazine-2-carboxamide]",> 1,< 0.5
[2H]C([2H])([2H])Oc1ccc(F)c(CONC(=O)c2cncc(-c3ccc(OC(F)F)nc3)n2)c1 [Compound 83],> 1,> 1
COc1ccc(F)c(CONC(=O)c2nc(-c3ccc(OC(F)F)nc3)cnc2F)c1 [Compound 123],> 1,> 1

# — EP4660184A1 (Eurofarma Laboratórios S.A., priority 2023, dated 2024)
